# Data as given in publication PMC12780224 (Nature Communications, 2025).
# T1: RdSqgA (Roseobacter denitrificans, UniProt Q167F5)
# T1 sequence (Q167F5 1-366): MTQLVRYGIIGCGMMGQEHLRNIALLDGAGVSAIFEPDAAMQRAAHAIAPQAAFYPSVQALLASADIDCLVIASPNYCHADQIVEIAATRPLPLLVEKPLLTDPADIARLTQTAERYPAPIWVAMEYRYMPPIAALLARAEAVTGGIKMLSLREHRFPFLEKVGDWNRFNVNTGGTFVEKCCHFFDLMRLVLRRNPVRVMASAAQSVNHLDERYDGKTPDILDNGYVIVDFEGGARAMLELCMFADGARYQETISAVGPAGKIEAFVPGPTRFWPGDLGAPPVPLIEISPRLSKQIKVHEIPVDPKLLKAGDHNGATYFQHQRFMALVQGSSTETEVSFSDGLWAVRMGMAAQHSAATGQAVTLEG
# T2: CtSqgA (Chaetoceros tenuissimus, UniProt A0AAD3HCU0)
# T2 sequence (A0AAD3HCU0 1-457): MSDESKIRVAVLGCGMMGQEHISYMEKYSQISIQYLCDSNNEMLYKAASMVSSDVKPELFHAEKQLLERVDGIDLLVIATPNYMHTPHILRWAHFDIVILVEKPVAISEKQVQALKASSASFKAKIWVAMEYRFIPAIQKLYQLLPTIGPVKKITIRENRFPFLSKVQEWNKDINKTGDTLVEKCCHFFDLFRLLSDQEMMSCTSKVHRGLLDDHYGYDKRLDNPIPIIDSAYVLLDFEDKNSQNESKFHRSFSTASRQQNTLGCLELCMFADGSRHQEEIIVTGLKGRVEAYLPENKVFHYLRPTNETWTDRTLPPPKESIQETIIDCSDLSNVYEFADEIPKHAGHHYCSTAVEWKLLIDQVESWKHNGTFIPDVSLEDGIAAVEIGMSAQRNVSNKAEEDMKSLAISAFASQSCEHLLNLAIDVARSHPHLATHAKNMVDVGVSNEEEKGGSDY
# T3: PpSqgA (Porphyridium purpureum, UniProt A0A5J4YS60)
# T3 sequence (A0A5J4YS60 1-369): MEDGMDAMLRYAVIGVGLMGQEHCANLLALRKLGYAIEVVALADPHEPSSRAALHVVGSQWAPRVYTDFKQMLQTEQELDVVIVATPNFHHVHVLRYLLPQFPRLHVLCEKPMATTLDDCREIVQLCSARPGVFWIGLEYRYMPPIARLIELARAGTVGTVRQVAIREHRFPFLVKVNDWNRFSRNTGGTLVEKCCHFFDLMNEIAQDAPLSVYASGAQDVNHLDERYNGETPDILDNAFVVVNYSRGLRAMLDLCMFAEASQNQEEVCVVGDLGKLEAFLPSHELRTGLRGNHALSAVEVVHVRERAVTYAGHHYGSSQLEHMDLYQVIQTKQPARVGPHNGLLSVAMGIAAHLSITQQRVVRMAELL
# B1: AmSqgH (Alteromonas macleodii ATCC 27126) (protein)
# chain: MSNAFCVNEPEWNDIKAADITEQPFLSDDKTLIVPTQYGELSLSISQFGLRIQSNVNAADDFGMLTQAPERLSLVLSGDQSHSTLAAGDYRLEVFAAPLHFKLYKNDVLVQQSATDGHFVRQHRLPPFAKTDKGWLLSLELSYDEAVYGLGEKWGKLDKRGQLIRSYNHDALGVNAEKSYKNTPYAWSPEGWNLFVHTPAPVTHGVGYALWSQRAYVCLVEDNVLDMFLFHQDSPAKCLQTYSELTGFAPTPPTWSLGVILSKAYYKDADELLAVAREVREKNMPCDVITLDGRAWQDTDTRFAFEWDPKRYADPQPVIDELKALGFKICVWEYPMISVKNPLYKKAADKGWLIKDKRTGEAYRYEWDLSPFGEVLTPLPDSGILDFTHPEAYEFWKTSHKPLFDLGIDMIKADFGEQLEDDNMLSYSGDSGNRLHNVYSMLYNRCVYEAADAYCKTGPFLFSRSAWTGSQRYPSQWGGDPQADWHGLAASIRGSLSWGMSGGPFFATDIGGFYKDTRDAELYVRWAQASVFSAHMRLHGIGPREPWSYGDAASNAVFEALKLRYKLIPYLKETAEKASQTGLPVQRAMALAFPEQPLSHGFEQQFMCGDDLLVVPCVVPGGKIKYYLPKGKWIRFGTEEVVQGEQYREEILALNDVAVFIQKGSRIVMGPDVQHTDMDMSNTTHWPA
# Key:
# RdSqgA = biological target: T1, RdSqgA; experiment: LC-MS of SQ formation; format: biochemical; settings: 200 mM NH4HCO3 pH 7.0, room temperature overnight
# CtSqgA = biological target: T2, CtSqgA; experiment: sulfoquinovosidase activity assay; format: biochemical; settings: details only in supplement
# PpSqgA = biological target: T3, PpSqgA; experiment: sulfoquinovosidase activity assay; format: biochemical; settings: details only in supplement
# purified protein = substrate: O=[N+]([O-])c1ccc(O[C@H]2O[C@H](CS(=O)(=O)O)[C@@H](O)[C@H](O)[C@H]2O)cc1; experiment: purified protein; settings: 10 mM phosphate buffer pH 7.5 (general assay buffer)
molecule,measurement,setting,value
NC(=O)c1ccc[n+]([C@@H]2O[C@H](COP(=O)(O)OP(=O)(O)OC[C@H]3O[C@@H](n4cnc5c(N)ncnc54)[C@H](O)[C@@H]3O)[C@@H](O)[C@H]2O)c1 [NAD^+],LC-MS of SQ formation,RdSqgA; 20 uM SQGro,"RdSqgA, revealed it to be an NAD^+-dependent sulfoquinovosidase"
O=S(=O)(O)C[C@H]1O[C@H](OC[C@H](O)CO)[C@H](O)[C@@H](O)[C@@H]1O [SQGro],LC-MS of SQ formation,RdSqgA; 10 mM NAD+,NAD^+-dependent sulfoquinovosidase that acts on SQGro to form SQ
same,sulfoquinovosidase activity assay (SQ release),CtSqgA,"These homologs have sulfoquinovosidase activity, allowing the liberation of SQ"
same,sulfoquinovosidase activity assay (SQ release),PpSqgA,"These homologs have sulfoquinovosidase activity, allowing the liberation of SQ"
B1,Km,purified protein,13.0 ± 2.2 mM
same,kcat,purified protein,119 ± 19 s⁻¹
